# Assay: Stability studies: storage under different relative humidity conditions, checked by XRPD pattern
# Format: physicochemical
# Conditions: solid stored at 25° C., 1 week each at 40%, 60%, 80%, 30%, 0% and 40% RH
# Description: The XRPD analyses were carried out on a PANanalytical X'pert Pro X-ray powder diffractometer using Cu Kα radiation. The instrument was equipped with a X'Celerator detector. A theta-two theta continuous scan from 2.5 degrees 2 theta to 40 degrees 2 theta was used. Each sample was prepared for analysis by placing it in a quartz sample holder. The XPRD patterns are reported in terms of degrees 2 theta (°2θ, accuracy ±0.1°), diffraction peak intensity (height, [cts]), full width at half maximum (FWHM, [°2θ]), interatomic spacing in angstroms (d-spacing, [Å]), and relative intensities (%). The relative intensity is recorded as the ratio of the peak intensity to that of the most intense peak.
# In order to check its thermodynamic stability, CHF 4226 crystal form D was stored at room temperature under different relative humidity (RH) conditions: • 40% RH. and 25° C. for 1 week • 60% RH. and 25° C. for 1 week • 80% RH and 25° C. for 1 week • 60% RH and 25° C. for 1 week • 40% RH and 25° C. for 1 week • 30% RH and 25° C. for 1 week • 0% RH. and 25° C. for 1 week • 40% RH and 25° C. for 1 week The thermodynamic stability of all the samples was checked by recording their XPRD pattern.
smiles,measurement,value
"COc1ccc(C[C@@H](C)NC[C@H](O)c2ccc(O)c3[nH]c(=O)ccc23)cc1.Cl [CHF 4226 crystal form D, 8-hydroxy-5-[(1R)-1-hydroxy-2-[[(1R)-2-(4-methoxyphenyl)-1-methylethyl]amino]ethyl]-2(1H)-quinolinone monohydrochloride]",thermodynamic stability (XPRD pattern after storage),stable features under all stability screening conditions

# Reference: patent US20090280068A1, “POLYMORPH OF 8-HYDROXY-5-[(1R)-1-HYDROXY-2-[[(1R)-2-(4-METHOXYPHENYL)-1-METHYLETHYL]AMINO]ETHYL]-2(1H)-QUINOLINONE MONOHYDROCHLORIDE” (Chiesi Farmaceutici S.p.A., priority 2008, published 2009)
